Laboratory results: paper PMC6366436 (Journal of Enzyme Inhibition and Medicinal Chemistry, 2019)

Tests used:
MgaCA = target: T1, MgaCA (Malassezia globosa, UniProt A8Q1N3); format: biochemical; settings: read-out: FAM
T1 construct: gene MGL_1814

NcoCAγ = target: T2, NcoCAγ (Nostoc commune, UniProt A0A2R5FUA4); format: biochemical; settings: TRIS pH 8.3, 0.1 M Na2SO4, 25 °C; 15 min pre-incubation; read-out: FAM
T2 construct: gene NIES4072_30780

CgNce103 = target: T3, CgNce103 (Nakaseomyces glabratus, UniProt Q6FTL6); format: biochemical; settings: read-out: FAM
T3 construct: gene NCE103
T3 sequence (Q6FTL6 entry or part of it): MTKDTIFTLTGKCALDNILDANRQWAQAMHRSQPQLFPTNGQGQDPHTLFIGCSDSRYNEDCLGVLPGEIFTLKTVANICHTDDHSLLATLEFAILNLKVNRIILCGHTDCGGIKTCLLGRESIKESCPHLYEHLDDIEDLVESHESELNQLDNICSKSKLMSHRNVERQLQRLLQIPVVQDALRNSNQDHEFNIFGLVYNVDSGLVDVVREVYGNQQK

VchCAγ = target: T4, VchCAγ (Vibrio cholerae, UniProt Q9KVT1); settings: read-out: FAM; TRIS pH 8.3, 0.1 M Na2SO4, 25 °C; 15 min pre-incubation
T4 construct: gene VC_0058
T4 sequence (Q9KVT1 1-184): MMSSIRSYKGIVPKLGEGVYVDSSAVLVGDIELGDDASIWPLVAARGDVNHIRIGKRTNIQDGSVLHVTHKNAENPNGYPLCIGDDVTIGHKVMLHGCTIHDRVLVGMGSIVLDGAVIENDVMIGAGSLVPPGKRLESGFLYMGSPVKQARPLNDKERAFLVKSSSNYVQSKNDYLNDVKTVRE

PfCA = target: T5, PfCA (Plasmodium falciparum, UniProt Q8IHW5); format: biochemical; settings: Hepes pH 7.5, 0.1 M Na2SO4, 25 °C; 15 min pre-incubation; read-out: FAM
T5 construct: gene PF3D7_1140000
T5 sequence (Q8IHW5 entry or part of it): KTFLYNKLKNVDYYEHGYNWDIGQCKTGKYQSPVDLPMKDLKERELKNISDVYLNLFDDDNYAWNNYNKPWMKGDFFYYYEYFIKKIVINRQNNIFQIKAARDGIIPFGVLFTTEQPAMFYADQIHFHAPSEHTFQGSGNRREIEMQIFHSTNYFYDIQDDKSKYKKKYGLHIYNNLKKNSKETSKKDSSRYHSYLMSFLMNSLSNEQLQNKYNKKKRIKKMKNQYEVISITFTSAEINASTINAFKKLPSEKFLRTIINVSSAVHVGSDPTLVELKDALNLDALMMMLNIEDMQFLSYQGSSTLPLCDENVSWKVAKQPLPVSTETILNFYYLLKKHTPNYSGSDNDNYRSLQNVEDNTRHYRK

VchCAα = target: T6, VchCAα (Vibrio cholerae, UniProt Q9KMP6); settings: read-out: FAM; Hepes pH 7.5, 0.1 M Na2SO4, 25 °C; 15 min pre-incubation
T6 construct: gene VC_A0274
T6 sequence (Q9KMP6 21-239 limits assumed): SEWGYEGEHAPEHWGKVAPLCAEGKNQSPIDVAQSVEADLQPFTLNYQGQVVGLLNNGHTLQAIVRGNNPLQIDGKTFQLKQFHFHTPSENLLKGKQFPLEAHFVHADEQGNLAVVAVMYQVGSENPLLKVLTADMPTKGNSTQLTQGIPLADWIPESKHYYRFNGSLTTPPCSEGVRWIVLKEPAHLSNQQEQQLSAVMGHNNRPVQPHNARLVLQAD

Can2 = Can2 (Cryptococcus neoformans, UniProt Q3I4V7); format: biochemical; settings: read-out: FAM
Can2, sequence (Q3I4V7 entry or part of it): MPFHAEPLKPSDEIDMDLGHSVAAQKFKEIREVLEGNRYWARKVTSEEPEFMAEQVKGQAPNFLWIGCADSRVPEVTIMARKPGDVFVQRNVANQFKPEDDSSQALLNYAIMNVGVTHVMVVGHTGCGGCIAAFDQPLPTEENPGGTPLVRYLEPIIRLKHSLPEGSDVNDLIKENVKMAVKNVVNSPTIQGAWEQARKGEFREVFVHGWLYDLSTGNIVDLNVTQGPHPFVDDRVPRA

PhaCAγ = target: T7, PhaCAγ; settings: read-out: FAM; TRIS pH 8.3, 0.1 M Na2SO4, 25 °C; 15 min pre-incubation
T7 construct: gene PhaCA

TweCAδ = target: T8, TweCAδ (Conticribra weissflogii, UniProt Q5U9J1); format: biochemical; settings: Hepes pH 7.5, 0.1 M Na2SO4, 25 °C; 15 min pre-incubation; read-out: FAM
T8 construct: gene ca1
T8 sequence (Q5U9J1 entry or part of it): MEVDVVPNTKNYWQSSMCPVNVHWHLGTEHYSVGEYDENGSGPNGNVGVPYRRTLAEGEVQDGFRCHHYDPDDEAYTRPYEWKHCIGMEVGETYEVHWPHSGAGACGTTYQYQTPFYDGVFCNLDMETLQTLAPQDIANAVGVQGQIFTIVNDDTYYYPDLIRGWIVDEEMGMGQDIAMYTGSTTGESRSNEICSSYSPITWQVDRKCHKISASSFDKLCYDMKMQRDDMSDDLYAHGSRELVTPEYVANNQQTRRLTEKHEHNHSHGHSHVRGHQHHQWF

BpsCAγ = target: T9, BpsCAγ; settings: read-out: FAM
T9 construct: gene BpsCAgamma

SazCA = target: T10, SazCA (Sulfurihydrogenibium azorense, UniProt C1DTU5); format: biochemical; settings: read-out: FAM
T10 construct: gene SULAZ_0541
T10 sequence (C1DTU5 entry or part of it): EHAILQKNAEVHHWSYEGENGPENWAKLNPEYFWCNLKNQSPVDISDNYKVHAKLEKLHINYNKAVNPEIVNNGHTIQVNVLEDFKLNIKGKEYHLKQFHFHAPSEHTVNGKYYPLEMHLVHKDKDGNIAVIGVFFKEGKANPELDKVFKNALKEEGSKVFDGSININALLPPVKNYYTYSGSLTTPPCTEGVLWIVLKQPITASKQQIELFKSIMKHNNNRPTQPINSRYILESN

CpsCAγ = settings: read-out: FAM; TRIS pH 8.3, 0.1 M Na2SO4, 25 °C; 15 min pre-incubation
CpsCAγ, sequence (UPI00051A3E8B entry or part of it): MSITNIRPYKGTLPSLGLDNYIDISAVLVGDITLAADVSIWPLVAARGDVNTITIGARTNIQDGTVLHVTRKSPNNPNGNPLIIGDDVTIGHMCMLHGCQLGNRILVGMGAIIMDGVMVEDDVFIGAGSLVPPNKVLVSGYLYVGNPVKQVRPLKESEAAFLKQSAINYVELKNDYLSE

TcCA = settings: read-out: FAM; Hepes pH 7.5, 0.1 M Na2SO4, 25 °C; 15 min pre-incubation
VchCAβ = target: T11, VchCAβ (Vibrio cholerae, UniProt A0A086SLX8); experiment: biochemical
T11 construct: gene can
T11 sequence (A0A086SLX8 1-222): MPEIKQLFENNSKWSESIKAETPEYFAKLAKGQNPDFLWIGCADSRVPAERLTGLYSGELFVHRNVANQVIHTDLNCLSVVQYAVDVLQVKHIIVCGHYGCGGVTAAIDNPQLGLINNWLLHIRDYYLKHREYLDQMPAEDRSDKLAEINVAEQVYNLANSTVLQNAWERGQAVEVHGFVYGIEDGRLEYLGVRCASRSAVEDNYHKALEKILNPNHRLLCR

Carbonate dehydratase = Carbonate dehydratase (Sulfurihydrogenibium sp. (strain YO3AOP1), UniProt B2V8E3); experiment: biochemical
BpsCAβ = target: T12, BpsCAβ (Burkholderia pseudomallei, UniProt Q63Y17); format: biochemical; settings: read-out: FAM
T12 construct: gene BPSL0372
T12 sequence (Q63Y17 1-256): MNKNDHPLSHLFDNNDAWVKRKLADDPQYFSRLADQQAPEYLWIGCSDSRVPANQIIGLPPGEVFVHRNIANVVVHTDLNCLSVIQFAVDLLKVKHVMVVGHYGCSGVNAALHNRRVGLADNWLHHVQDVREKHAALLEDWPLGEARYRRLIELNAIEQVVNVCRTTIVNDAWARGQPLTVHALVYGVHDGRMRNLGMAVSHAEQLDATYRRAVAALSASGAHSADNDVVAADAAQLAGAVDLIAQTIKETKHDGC

T2 sequence (A0A2R5FUA4 entry or part of it): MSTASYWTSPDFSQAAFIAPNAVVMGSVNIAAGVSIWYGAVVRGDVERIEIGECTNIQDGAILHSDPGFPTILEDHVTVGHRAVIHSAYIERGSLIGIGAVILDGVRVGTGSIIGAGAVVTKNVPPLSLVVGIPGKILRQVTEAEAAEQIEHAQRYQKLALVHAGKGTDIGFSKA
T1 sequence (A8Q1N3 entry or part of it): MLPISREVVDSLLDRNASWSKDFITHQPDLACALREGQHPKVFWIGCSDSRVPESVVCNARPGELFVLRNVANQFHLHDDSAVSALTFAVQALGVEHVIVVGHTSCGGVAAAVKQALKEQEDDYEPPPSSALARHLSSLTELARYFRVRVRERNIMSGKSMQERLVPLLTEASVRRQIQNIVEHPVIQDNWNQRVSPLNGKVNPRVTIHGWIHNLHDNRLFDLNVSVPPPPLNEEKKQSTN

`NC(N)=Nc1nc(CSCCC(N)=NS(N)(=O)=O)cs1` [FAM, Famotidine] showed a Ki (MgaCA) of 42.1 µM, a Ki (NcoCAγ) of 1.69 µM and a Ki (CgNce103) of 0.0136 µM. It also gave a Ki (VchCAγ) of 5.32 µM, a Ki (PfCA) of 0.142 µM and a Ki (VchCAα) of 0.0723 µM. It also gave a Ki (Can2) of 0.107 µM, a Ki (PhaCAγ) of 0.0668 µM and a Ki (TweCAδ) of 0.408 µM. It also gave a Ki (BpsCAγ) of 8.29 µM, a Ki (SazCA) of 0.124 µM and a Ki (CpsCAγ) of 0.089 µM. The Ki (TcCA) was 5.71 µM, the Ki (VchCAβ) was 83.9 µM and the Ki (Carbonate dehydratase) was 0.23 µM. For the same compound, the Ki (BpsCAβ) was 8.27 µM.
